Experimental data reported in patent publication US9302999B2, “Substituted triazoles as herbicides” (E. I. DU PONT DE NEMOURS AND COMPANY, priority 2012, dated 2016).

Legend:
Type in all cases: in vivo
corn (Zea mays) = experiment: Test F pre-/postemergence: corn; conditions: Postemergence, scale 0 to 100
Excerpt: (§1) Seeds of plant species selected from corn (Zea mays), soybean (Glycine max), velvetleaf (Abutilon theophrasti), lambsquarters (Chenopodium album), poinsettia, wild (wild poinsettia, Euphorbia heterophylla), pigweed, palmer (palmer pigweed, Amaranthus palmeri), waterhemp (common waterhemp, Amaranthus rudis), surinam grass (Brachiaria decumbens), crabgrass, Brazil (Brazilian crabgrass, Digitaria horizontalis), panicum, fall (fall panicum Panicum dichotomiflorum), crabgrass, large (large crabgrass, Digitaria sanguinalis), foxtail, giant (giant foxtail, Setaria faberii), foxtail, green (green foxtail Setaria viridis), goosegrass (Eleusine indica), ragweed (common ragweed, Ambrosia elatior), barnyardgrass (Echinochloa crus-galli), sandbur (southern sandbur, Cenchrus echinatus), arrowleaf sida (Sida rhombifolia), ryegrass, Italian (Italian ryegrass, Lolium multiflorum), dayflower, VA (Virginia (VA) dayflower, Commelina virginica), field bindweed (Convolvulus arvensis), cocklebur (common cocklebur, Xanthium strumarium), morningglory (Ipomoea coccinea), nightshade (eastern black nightshade, Solanum ptycanthum), kochia (Kochia scoparia), nutsedge, yellow (yellow nutsedge, Cyperus esculentus), johnsongrass (Sorghum halepense), smartweed (ladysthumb smartweed, Polygonum persicaria), and beggarticks (hairy beggarticks, Bidens pilosa), were planted into a silt loam soil and treated preemergence with test chemicals formulated in a non-phytotoxic solvent mixture which included a surfactant. At the same time, plants selected from these crop and weed species and also pigweed (Amaranthus retroflexus), waterhemp_RES1 (ALS/Triazine resistant common waterhemp, Amaranthus rudis) and waterhemp_RES2 (ALS/HPPD resistant common waterhemp, Amaranthus rudis) were planted in pots containing a planting medium comprising spaghnum peat moss, vermiculite, wetting agent and starter nutrients treated with postemergence applications of some of the test chemicals formulated in the same manner. Plants ranged in height from 2 to 18 cm for postemergence treatments (1- to 4-leaf stage).
(§2) Treated plants and controls were maintained in a greenhouse for 14 to 21 days, after which time all species were compared to controls and visually evaluated. Plant response ratings, summarized in Table E, are based on a scale of 0 to 100 where 0 is no effect and 100 is complete control. A dash (-) response means no test result.

[1] = tested on: dayflower, VA (Virginia (VA) dayflower, Commelina virginica); experiment: Test F pre-/postemergence: dayflower, VA; conditions: Postemergence, scale 0 to 100
Excerpt: as §1, §2

[2] = tested on: deadnettle (henbit deadnettle, Lamium amplexicaule); experiment: Test D pre-/postemergence: deadnettle
Summary of the method: (§3)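 Applied as a non-phytotoxic solvent formulation with surfactant, compounds were tested preemergence in silt loam and postemergence on seedlings 2 to 18 cm high in peat-vermiculite medium. Evaluation was visual, 0 meaning no effect and 100 complete control, at 14 to 21 days.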

[3] = tested on: mustard, wild (wild mustard, Sinapis arvensis); experiment: Test D pre-/postemergence: mustard, wild
Summary of the method: as §3

kochia (Kochia scoparia) = experiment: Test D pre-/postemergence: kochia
Summary of the method: as §3

[4] = tested on: lambsquarters (Chenopodium album); experiment: Test D pre-/postemergence: lambsquarters
Summary of the method: as §3

[5] = tested on: foxtail, green (green foxtail, Setaria viridis); experiment: Test D pre-/postemergence: foxtail, green
Summary of the method: as §3

[6] = Postemergence, 31 g ai/ha, scale 0 to 100 (0 no effect, 100 complete control)
[7] = Postemergence, 62 g ai/ha, scale 0 to 100 (0 no effect, 100 complete control)
[8] = Postemergence, 125 g ai/ha, scale 0 to 100, 0 no effect, 100 complete control
[9] = Postemergence, 250 g ai/ha, scale 0 to 100 (0 no effect, 100 complete control)
[10] = Preemergence, 31 g ai/ha, scale 0 to 100, 0 no effect, 100 complete control
[11] = Preemergence, 62 g ai/ha, scale 0 to 100
[12] = Preemergence, 125 g ai/ha, scale 0 to 100
[13] = Preemergence, 250 g ai/ha, scale 0 to 100
[14] = Postemergence, 16 g ai/ha, scale 0 to 100
[15] = Preemergence, 16 g ai/ha, scale 0 to 100, 0 no effect, 100 complete control

Cc1nn(-c2ccnc(Cl)c2)nc1Cc1ccnc(C(F)(F)F)c1 [Compound 141]
Plant response rating, Corn (corn (Zea mays); 8 g ai/ha): 15
Plant response rating, Corn (corn (Zea mays); 16 g ai/ha): 15
Plant response rating, Corn (corn (Zea mays); 31 g ai/ha): 20
Plant response rating, Corn (corn (Zea mays); 62 g ai/ha): 20
Plant response rating, Corn (corn (Zea mays); 125 g ai/ha): 30
Plant response rating, Dayflower, VA ([1]; 8 g ai/ha): 10
Plant response rating, Dayflower, VA ([1]; 16 g ai/ha): 10
Plant response rating, Dayflower, VA ([1]; 31 g ai/ha): 35
Plant response rating, Dayflower, VA ([1]; 62 g ai/ha): 60
Plant response rating, Dayflower, VA ([1]; 125 g ai/ha): 75

FC(F)(F)COc1nn(-c2ccc(C(F)(F)F)cc2)nc1Cc1ccnc(C(F)(F)F)c1 [Compound 14, 4-[[5-(2,2,2-trifluoroethoxy)-2-[4-(trifluoromethyl)phenyl]-2H-1,2,3-triazol-4-yl]methyl]-2-(trifluoromethyl)pyridine]
Plant response rating: Deadnettle [2, 6]: 25
Plant response rating: Deadnettle [2, 7]: 40
Plant response rating: Deadnettle [2, 8]: 100
Plant response rating: Deadnettle [2, 9]: 100
Plant response rating, Deadnettle [2, 10]: 60
Plant response rating, Deadnettle [2, 11]: 70
Plant response rating, Deadnettle [2, 12]: 100
Plant response rating, Deadnettle [2, 13]: 100
Plant response rating: Mustard, Wild [3, 6]: 50
Plant response rating: Mustard, Wild [3, 7]: 90
Plant response rating: Mustard, Wild [3, 8]: 100
Plant response rating: Mustard, Wild [3, 9]: 100
Plant response rating, Mustard, Wild [3, 10]: 0
Plant response rating, Mustard, Wild [3, 11]: 50
Plant response rating, Mustard, Wild [3, 12]: 90
Plant response rating, Mustard, Wild [3, 13]: 95
Plant response rating: Kochia (kochia (Kochia scoparia); [6]): 95
Plant response rating: Kochia (kochia (Kochia scoparia); [7]): 95
Plant response rating: Kochia (kochia (Kochia scoparia); [8]): 100
Plant response rating: Kochia (kochia (Kochia scoparia); [9]): 100
Plant response rating, Kochia (kochia (Kochia scoparia); [10]): 10
Plant response rating, Kochia (kochia (Kochia scoparia); [11]): 40
Plant response rating, Kochia (kochia (Kochia scoparia); [12]): 80
Plant response rating, Kochia (kochia (Kochia scoparia); [13]): 90
Plant response rating: Lambsquarters [4, 6]: 80
Plant response rating: Lambsquarters [4, 7]: 80
Plant response rating: Lambsquarters [4, 8]: 100
Plant response rating: Lambsquarters [4, 9]: 100
Plant response rating, Lambsquarters [4, 10]: 0
Plant response rating, Lambsquarters [4, 11]: 40
Plant response rating, Lambsquarters [4, 12]: 60
Plant response rating, Lambsquarters [4, 13]: 75
Plant response rating: Foxtail, Green [5, 6]: 10
Plant response rating: Foxtail, Green [5, 7]: 25
Plant response rating: Foxtail, Green [5, 8]: 30
Plant response rating: Foxtail, Green [5, 9]: 95
Plant response rating, Foxtail, Green [5, 10]: 0
Plant response rating, Foxtail, Green [5, 11]: 10
Plant response rating, Foxtail, Green [5, 12]: 75
Plant response rating, Foxtail, Green [5, 13]: 100

Cc1nn(-c2ccc(C(F)(F)F)cc2)nc1Oc1ccnc(C(F)(F)F)c1 [Compound 120]
Plant response rating: Deadnettle [2, 6]: 90
Plant response rating: Deadnettle [2, 7]: 90
Plant response rating: Deadnettle [2, 8]: 100
Plant response rating: Deadnettle [2, 9]: 100
Plant response rating, Deadnettle [2, 14]: 30
Plant response rating, Deadnettle [2, 15]: 0
Plant response rating, Deadnettle [2, 10]: 85
Plant response rating, Deadnettle [2, 11]: 100
Plant response rating, Deadnettle [2, 12]: 100
Plant response rating, Deadnettle [2, 13]: 100
Plant response rating, Mustard, Wild [3, 15]: 0
Plant response rating, Mustard, Wild [3, 11]: 90
Plant response rating, Mustard, Wild [3, 12]: 100
Plant response rating, Mustard, Wild [3, 13]: 100
Plant response rating: Kochia (kochia (Kochia scoparia); [6]): 98
Plant response rating: Kochia (kochia (Kochia scoparia); [7]): 100
Plant response rating: Kochia (kochia (Kochia scoparia); [8]): 100
Plant response rating: Kochia (kochia (Kochia scoparia); [9]): 100
Plant response rating, Kochia (kochia (Kochia scoparia); [14]): 98
Plant response rating, Kochia (kochia (Kochia scoparia); [15]): 0
Plant response rating, Kochia (kochia (Kochia scoparia); [10]): 10
Plant response rating, Kochia (kochia (Kochia scoparia); [11]): 30
Plant response rating, Kochia (kochia (Kochia scoparia); [12]): 95
Plant response rating, Kochia (kochia (Kochia scoparia); [13]): 100
Plant response rating: Lambsquarters [4, 6]: 98
Plant response rating: Lambsquarters [4, 7]: 100
Plant response rating: Lambsquarters [4, 8]: 100
Plant response rating: Lambsquarters [4, 9]: 100
Plant response rating, Lambsquarters [4, 14]: 95
Plant response rating, Lambsquarters [4, 10]: 80
Plant response rating, Lambsquarters [4, 11]: 90
Plant response rating, Lambsquarters [4, 12]: 100
Plant response rating, Lambsquarters [4, 13]: 100
Plant response rating: Foxtail, Green [5, 6]: 15
Plant response rating: Foxtail, Green [5, 7]: 80
Plant response rating: Foxtail, Green [5, 8]: 95
Plant response rating: Foxtail, Green [5, 9]: 100
Plant response rating, Foxtail, Green [5, 14]: 5
Plant response rating, Foxtail, Green [5, 15]: 70
Plant response rating, Foxtail, Green [5, 10]: 100
Plant response rating, Foxtail, Green [5, 11]: 100
Plant response rating, Foxtail, Green [5, 12]: 100
Plant response rating, Foxtail, Green [5, 13]: 100

Cc1nn(-c2ccc(C(F)(F)F)cn2)nc1Oc1ccnc(C(F)(F)F)c1 [Compound 23]
Plant response rating: Deadnettle [2, 6]: 30
Plant response rating: Deadnettle [2, 7]: 50
Plant response rating: Deadnettle [2, 8]: 60
Plant response rating: Deadnettle [2, 9]: 90
Plant response rating, Deadnettle [2, 14]: 20
Plant response rating: Mustard, Wild [3, 6]: 40
Plant response rating: Mustard, Wild [3, 7]: 85
Plant response rating: Mustard, Wild [3, 8]: 100
Plant response rating: Mustard, Wild [3, 9]: 100
Plant response rating, Mustard, Wild [3, 14]: 20
Plant response rating: Kochia (kochia (Kochia scoparia); [6]): 80
Plant response rating: Kochia (kochia (Kochia scoparia); [7]): 85
Plant response rating: Kochia (kochia (Kochia scoparia); [8]): 90
Plant response rating: Kochia (kochia (Kochia scoparia); [9]): 95
Plant response rating, Kochia (kochia (Kochia scoparia); [14]): 20
Plant response rating: Lambsquarters [4, 6]: 30
Plant response rating: Lambsquarters [4, 7]: 80
Plant response rating: Lambsquarters [4, 8]: 100
Plant response rating: Lambsquarters [4, 9]: 100
Plant response rating, Lambsquarters [4, 14]: 30
Plant response rating: Foxtail, Green [5, 6]: 15
Plant response rating: Foxtail, Green [5, 7]: 20
Plant response rating: Foxtail, Green [5, 8]: 25
Plant response rating: Foxtail, Green [5, 9]: 25
Plant response rating, Foxtail, Green [5, 14]: 15
